Patent US5641793A, “Pyridine compounds which have useful pharmaceutical activity” (Zeneca Limited, priority 1994, dated 1997)

Tests used:
[1] = tested on: Human ETA or ETB receptors; experiment: Test A: inhibition of [125I]-Endothelin-1 binding to MEL cell membranes expressing recombinant receptor; details: inhibition of 30 pM [125I]-Endothelin-1 binding; receptor sub-type (ETA or ETB) not given
Description: The endothelin receptor antagonist activity of compounds of formula I may be assessed in vitro by their ability to inhibit binding of [^125 I]-Endothelin-1 to its receptors. Human ETA or ETB receptors (sub-types of the endothelin receptor) were expressed in Mouse Erythroleukemic Cells (MEL cells) by using standard molecular techniques (for example, as described by Sambrook J., Fritsch E. F. & Maniatis T. (1989) Molecular Cloning: A Laboratory Manual, 2nd Edition, Cold Spring Harbor Press, U.S.A.). cDNA sequences encoding the human ETA and ETB receptor (Hosoda K. et al (1991), FEBS Lett., 287, 23-26 and Sakamoto A. et al, (1991), Biochem. Biophys Res. Comm., 178, 656-663) are subcloned into pBluescript vector followed by insertion into the MEL cell expression vector pEV as described by Needham et al (1992), Nuc. Acids Res., 20, 997-1003. […]
[^125 I]-Endothelin-1 binding to MEL cell membranes was measured in incubation buffer containing 50 mM Tris HCl, 1 mM CaCl2, 0.05% polyoxyethylenesorbitan monolaurate, 0.1% Bovine Serum Albumin (BSA), 0.02% sodium azide pH 7.4 at 30° C. after 180 minutes incubation. […] Nonspecific binding was measured in the presence of 100 nM unlabelled Endothelin-1. […] The filter discs were punched out and counted in a gamma counter. Compounds are tested in triplicate over a range of concentrations and IC50 (or pIC50) values calculated.

endothelin receptor = experiment: Test B: inhibition of the relaxant response to endothelin-1 in guinea-pig isolated taenia coli; details: antagonism of endothelin-1 relaxation, initial test concentration 20 μM
Procedure: The endothelin receptor antagonist activity of compounds of formula I may be assessed in vitro in isolated tissues by their ability to inhibit the relaxant response to endothelin-1 in the guinea-pig isolated taenia coli. Guinea pigs of either sex and weight >250 g are killed by cervical dislocation and the caecum removed and placed in cold oxygenated Krebs solution. Strips of taenia coli are dissected out and approximately 4 cm lengths set up for isotonic recording in a 20 ml organ bath containing oxygenated Krebs solution at 32° C. After a […] equilibration period to allow the tissue to spontaneously develop an increased tone, a cumulative concentration-response curve (relaxation) is constructed to endothelin-1 (0.3-10 nM). The tissue is then washed for a period of at least 90 minutes before construction of a second concentration-response curve to endothelin-1 in the presence of the test compound. The test compound is added to the organ bath (at an initial concentration of 20 μM) at least 30 minutes before constructing the second concentration-response curve to endothelin-1. The endothelin-1 concentration ratio for each experiment is determined by comparing the most parallel portions of the control and drug treated concentration-response curves. From this a pA2 is calculated: pA2 =-log[molar drug concentration]+log[concentration ratio-1].

pIC50 in test A [1]: 6.5
Structure (SMILES): Cc1cc(Br)cnc1NS(=O)(=O)c1cccc2c(N(C)C)cccc12 [Example 6, 5-(dimethylamino)-N-(5-bromo-3-methyl-2-pyridyl)-1-naphthalenesulphonamide]
pA2 in test B (endothelin receptor): 6.6
